{"source": "patent US7985072B2", "about": "“Method and apparatus for tooth rejuvenation and hard tissue modification” (Rejuvedent LLC, priority 2005, dated 2011)", "key": {"[1]": {"assay": "Depth of the etched (porous) enamel layer with aqueous citric acid solution, parameters of equation (1)", "source_text": "The inventors conducted a series of tests to determine the optimal pH, temperature and time for tooth rejuvenation, and for designing various devices for the tooth rejuvenation procedure. […] The enamel surface is not homogeneous, it contains inorganic components, such as hydroxyapatite, in the form of crystals oriented towards its surface. The enamel surface also contains organic components, such as proteins. When the organic and inorganic components are exposed to an aqueous acid solution, such exposure leads to the deconstruction and removal of these components to a certain depth into the enamel, forming a superficial porous layer. Stains, bacteria and the weak components of the enamel are removed from the porous layer, bleached or destroyed by the acid. Exposure time, pH and the concentration and temperature of the solution all affect the depth of tissue treatment and structure of surface after treatment. The removal and bleaching of the organic component is important because this component contains the most pigment. The organic component is however, tightly bound to the inorganic component, which occurs during tooth formation and is not affected by factors such as frequency of tooth brushing, or the type of toothpaste used. Because of this, bleaching removes both the organic and the bonded inorganic components.\nThe ability of an aqueous acidic solution to deconstruct and dissolve both organic and inorganic components depends on the period of time, pH, concentration, and temperature at which the process occurs. The color of the enamel after stain removal and bleaching is determined by how closely the structure after etching matches the natural structure and how well light is scattered from the surface of the tooth. Remineralization is however, a slow process, so caution in carrying out the procedure is recommended, and it is desirable to protect the new surface with a hard material. To achieve this, the present invention proposes the use of a high concentration of acid to minimize the time of treatment. For a high concentration of acid to be used safely within the oral cavity, two fundamental safety concerns need to be addressed: firstly toxicity and secondly soft tissue damage. To completely eliminate the toxicity problem, especially for home use, we propose the use of an edible acid which is non-toxic when ingested. The volume of acid for any application in the present invention is limited to several cubic centimeters. After dissolution in saliva the concentration of the acid ingested will drop, and the pH will increase, which is typical for foodstuffs. A typical pH for food acids is 2.5 or more. We have studied the effect of a low pH (<2.5) edible acid on intact enamel.\nThe temperature of the acid is another parameter to be optimized for enamel etching when using a high concentration of acid. An increase in temperature increases the depth of etching due to two factors: first, it increases the diffusion coefficient and, second, the rate of the chemical reaction between the acid and the enamel due to Arrenius law. […] These graphs can be described by the following formula: […]\nHere, hw is the depth of the porous layer of enamel in μm after t min of etching as a function of t. Parameters cc, ct, and D can be the functions of both temperature T and pH.\nThe parameters α, cc, and D were found using the best square fit."}, "[2]": {"assay": "Example 3: thermal treatment of etched enamel impregnated by sapphire particles (CO2 laser), in vitro", "design": "species or system human", "settings": "pH=1.5, approximately +50° C., approximately 10 minutes", "method": "The authors produced a durable, white colored coating on the enamel surface in an in-vitro experiment as described below. The experiment was conducted on freshly extracted teeth from subjects in the 25-40 age group. The teeth were extracted for periodontal reasons. All specimens had healthy, intact enamel. Prior to the experiment, the specimen were stored for no longer than two weeks in a physiological solution, in a dark place at a temperature of approximately +4° C.\nOne half of the crown of the tooth was coated with varnish. […] The tooth was exposed to the acid for a period of approximately 10 minutes, which was sufficient for the formation of a porous layer of enamel, approximately 50 μm in thickness on unprotected side of the specimen. […]\nThermocycling test was performed after described treatment The tooth was placed into two alternate water baths, one at +25° C. and the other at +90° C., for a period of 2 seconds into each bath, for a total immersion of 100 cycles. The hardness of the treated and untreated sides was assessed, before and after thermocycling, using a dental probe. The strength of the adhesion of the newly formed layer with sapphire particles to the underlying enamel was also assessed using the tip of the dental probe in an attempt to dislodge the newly formed layer at the border."}, "[3]": {"test_system": "premolar teeth of a subject", "assay": "Example 1: in-office tooth whitening treatment"}}}
{"smiles": "O=C(O)CC(O)(CC(=O)O)C(=O)O", "note": "[citric acid]", "values": [{"measurement": "etched depth of the tooth enamel", "setting": "[1]; 50° C., pH=1.5, from the presented graphs (exposure time 10 min)", "result": 40, "unit": "μm"}, {"measurement": "D, parameter of equation (1), thickness of porous (etched) layer of enamel", "setting": "[1]; T = 50° C., pH 1", "result": 94.035, "unit": "μm^2/min"}, {"measurement": "α1, parameter of equation (1), thickness of porous (etched) layer of enamel", "setting": "[1]; T = 50° C., pH 1", "result": 1.069, "unit": "μm/min"}, {"measurement": "α, parameter of equation (1), thickness of porous (etched) layer of enamel", "setting": "[1]; T = 50° C., pH 1", "result": 3.195, "unit": "μm/min"}, {"measurement": "D, parameter of equation (1), thickness of porous (etched) layer of enamel", "setting": "[1]; T = 50° C., pH 2", "result": 4.646, "unit": "μm^2/min"}, {"measurement": "α1, parameter of equation (1), thickness of porous (etched) layer of enamel", "setting": "[1]; T = 50° C., pH 2", "result": 0.559, "unit": "μm/min"}, {"measurement": "α, parameter of equation (1), thickness of porous (etched) layer of enamel", "setting": "[1]; T = 50° C., pH 2", "result": 1.022, "unit": "μm/min"}, {"measurement": "α1, parameter of equation (1), thickness of porous (etched) layer of enamel", "setting": "[1]; T = 50° C., pH 2.5", "result": "−0.018", "unit": "μm/min"}, {"measurement": "α, parameter of equation (1), thickness of porous (etched) layer of enamel", "setting": "[1]; T = 50° C., pH 2.5", "result": 0.211, "unit": "μm/min"}, {"measurement": "D, parameter of equation (1), thickness of porous (etched) layer of enamel", "setting": "[1]; pH = 1.5, 20 °C", "result": 2.604, "unit": "μm^2/min"}, {"measurement": "α1, parameter of equation (1), thickness of porous (etched) layer of enamel", "setting": "[1]; pH = 1.5, 20 °C", "result": 0.158, "unit": "μm/min"}, {"measurement": "α, parameter of equation (1), thickness of porous (etched) layer of enamel", "setting": "[1]; pH = 1.5, 20 °C", "result": 0.524, "unit": "μm/min"}, {"measurement": "D, parameter of equation (1), thickness of porous (etched) layer of enamel", "setting": "[1]; pH = 1.5, 37 °C", "result": 23.124, "unit": "μm^2/min"}, {"measurement": "α1, parameter of equation (1), thickness of porous (etched) layer of enamel", "setting": "[1]; pH = 1.5, 37 °C", "result": 0.515, "unit": "μm/min"}, {"measurement": "α, parameter of equation (1), thickness of porous (etched) layer of enamel", "setting": "[1]; pH = 1.5, 37 °C", "result": 1.751, "unit": "μm/min"}, {"measurement": "D, parameter of equation (1), thickness of porous (etched) layer of enamel", "setting": "[1]; pH = 1.5, 40 °C", "result": 36.801, "unit": "μm^2/min"}, {"measurement": "α1, parameter of equation (1), thickness of porous (etched) layer of enamel", "setting": "[1]; pH = 1.5, 40 °C", "result": 0.469, "unit": "μm/min"}, {"measurement": "α, parameter of equation (1), thickness of porous (etched) layer of enamel", "setting": "[1]; pH = 1.5, 40 °C", "result": 1.921, "unit": "μm/min"}, {"measurement": "D, parameter of equation (1), thickness of porous (etched) layer of enamel", "setting": "[1]; pH = 1.5, 45 °C", "result": 74.738, "unit": "μm^2/min"}, {"measurement": "α1, parameter of equation (1), thickness of porous (etched) layer of enamel", "setting": "[1]; pH = 1.5, 45 °C", "result": 0.833, "unit": "μm/min"}, {"measurement": "α, parameter of equation (1), thickness of porous (etched) layer of enamel", "setting": "[1]; pH = 1.5, 45 °C", "result": 2.767, "unit": "μm/min"}, {"measurement": "D, parameter of equation (1), thickness of porous (etched) layer of enamel", "setting": "[1]; pH = 1.5, 50 °C", "result": 121.664, "unit": "μm^2/min"}, {"measurement": "α1, parameter of equation (1), thickness of porous (etched) layer of enamel", "setting": "[1]; pH = 1.5, 50 °C", "result": 1.31, "unit": "μm/min"}, {"measurement": "α, parameter of equation (1), thickness of porous (etched) layer of enamel", "setting": "[1]; pH = 1.5, 50 °C", "result": 3.755, "unit": "μm/min"}, {"measurement": "D, parameter of equation (1), thickness of porous (etched) layer of enamel", "setting": "[1]; pH = 1.5, 60 °C", "result": 122.528, "unit": "μm^2/min"}, {"measurement": "α1, parameter of equation (1), thickness of porous (etched) layer of enamel", "setting": "[1]; pH = 1.5, 60 °C", "result": 1.504, "unit": "μm/min"}, {"measurement": "α, parameter of equation (1), thickness of porous (etched) layer of enamel", "setting": "[1]; pH = 1.5, 60 °C", "result": 4.124, "unit": "μm/min"}, {"measurement": "thickness of porous layer of enamel formed", "setting": "[2]", "result": "approximately 50 μm"}, {"measurement": "change in gingival tissue and hypersensitivity", "setting": "[3]; after treatment or during follow up appointments", "result": "No change in gingival tissue and no hypersensitivity"}, {"measurement": "gloss of treatment side versus control side", "setting": "[3]; immediately after treatment", "result": "less glossy than the control side"}, {"measurement": "pain or discomfort throughout the treatment", "setting": "[3]; pH=1.5, average +50° C., 10 minutes", "result": "did not report any pain or discomfort"}]}
